103 compounds from PubChem BioAssay AID1949 (Southern Research Institute, 2009) can be followed below.

SMILES strings stand for the structures. Converted amounts (≈) assume the structure as drawn. Records with an inconclusive call do not appear. The source made the active and inactive calls. The rule behind the calls is not given here.

This test has as its system M. tuberculosis H37Rv growth inhibition. Description: Confirmatory growth inhibition assay against Mycobacterium tuberculosis H37Rv, potency (AID 1949).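 Note: bacteria grown 7 days with compound before Alamar blue readout.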

As usually defined, the IC50 is the concentration that inhibits the measured activity by half.

With `COc1ccc(CCNC(=S)N2CCN(c3ccc(Cl)c(Cl)c3)CC2)cc1OC`, the IC50 was 6.47 µg/mL (≈ 14.2 µM).
`CC1C(c2ccccc2)=[N+]([O-])C(C)(c2ccc(F)cc2)N1O` (stereo not drawn): the IC50 is > 50 µg/mL (inactive).
Then `CCN(CC)c1ccc(NC(=S)Nc2ccc(F)c(Cl)c2)cc1`, with 7.64 µg/mL (≈ 21.7 µM).
Then `O=C(Nc1ccc2c(c1)OCCO2)NC12CC3CC(CC(C3)C1)C2`, with 4.52 µg/mL (≈ 13.8 µM); and `O=C(NCc1ccccc1)c1cc2cc(Cl)cc(Cl)c2oc1=O`, with > 50 µg/mL (inactive).
Under `O=C1c2ccc(-c3nc4ccccc4c(=O)o3)cc2C(=O)N1Cc1ccccc1` stands > 50 µg/mL (inactive); under `CCC(=O)Oc1cccc2ccc(/C=C/c3ccc(C(=O)OC)cc3)nc12`, 3.21 µg/mL (≈ 8.88 µM); under `CCCn1nnnc1NC(=O)c1cccs1`, 1.67 µg/mL (≈ 7.04 µM).
Regarding `COc1ccc(-c2nnc(SCC(=O)NCCc3ccccc3)o2)cc1`, the IC50 is under 0.1 µg/mL.
Under `CC(C)C(=O)N1CCN(c2ccccc2NC(=O)c2ccc([N+](=O)[O-])o2)CC1` stands 1.95 µg/mL (≈ 5.05 µM); under `O=[N+]([O-])c1ccc(NCCNc2nc(N3CCCC3)nc3ccccc23)cc1`, 1.06 µg/mL (≈ 2.8 µM); under `Cc1oc2ccc(OC(=O)c3ccc(F)cc3)cc2c1C(=O)OC(C)C`, 2.4 µg/mL (≈ 6.73 µM).
Under `Cc1ccc(NC(=S)c2ccccn2)cc1` stands 0.99 µg/mL (≈ 4.34 µM); under `CC(C)(C)c1ccc(C(=O)Nc2nccs2)cc1Br`, 0.37 µg/mL (≈ 1.09 µM).
Under `CC(Oc1ccc(C(C)(C)C)cc1)c1nc(-c2ccncc2)no1` (stereo not drawn) stands 22.8 µg/mL (≈ 70.6 µM); under `Cc1ccccc1OC(=O)c1sc2ccccc2c1Cl`, 2.05 µg/mL (≈ 6.77 µM).
As to `CCOC(=O)COc1ccc2c(=O)c(-c3ccccc3Cl)c(C)oc2c1C`, the IC50 is 0.98 µg/mL (≈ 2.53 µM).
For the compound `Cc1cc(C)nc(/N=C(/N)Nc2cc(Oc3ccccc3)ccc2Cl)n1`, the concentration for half-maximal inhibition (IC50) is 4.87 µg/mL (≈ 13.2 µM).
Then `O=C(CCNc1ccc(Cc2ccncc2)cc1)c1cccs1`, with 5.83 µg/mL (≈ 18.1 µM); and `O=C(NCCC1=CCCCC1)Nc1ccc([N+](=O)[O-])cc1`, with 11.6 µg/mL (≈ 40 µM); and `COc1cccc(C(=O)NC(=S)Nc2ccc(N3CCN(C(=O)c4cccs4)CC3)c(Cl)c2)c1`, with 0.76 µg/mL (≈ 1.48 µM).
Then `CCOC(=O)c1c(NC(=O)COc2ccccc2C)sc(C(=O)N2CCCC2)c1C`, with > 50 µg/mL (inactive); and `CC1(C)Oc2ccc3ccc(=O)oc3c2C(C=O)=C1Cl`, with 1.03 µg/mL (≈ 3.54 µM); and `CN(C)c1ccc(Nc2nc(-c3ccccn3)cs2)cc1`, with 0.74 µg/mL (≈ 2.5 µM).
Then `Cn1c(Sc2cnn(-c3ccccc3)c(=O)c2Br)nnc1-c1ccccc1`, with 2.81 µg/mL (≈ 6.38 µM).
As to `O=C(CCNc1cccc(Cl)c1)c1ccc([N+](=O)[O-])cc1`, the IC50 is 2.87 µg/mL (≈ 9.42 µM).
Under `COc1ccc(OC(C)C(=O)Nc2ccc(I)cc2)cc1` (stereo not drawn) stands 0.32 µg/mL (≈ 0.806 µM); under `CCN(c1ccccc1)S(=O)(=O)c1ccc(NC(=O)Nc2ccc(Cl)cc2)cc1`, 5.77 µg/mL (≈ 13.4 µM); under `CCOc1ccc(NC(=O)COc2ccc(SC)cc2)cc1`, under 0.1 µg/mL.
Then `S=C(NCc1ccc(Cl)cc1)NCc1ccc(-n2cccn2)cc1`, with 5.4 µg/mL (≈ 15.1 µM); and `O=C1C(=O)N(Cc2cccc3ccccc23)c2ccc(Cl)cc21`, with 21.4 µg/mL (≈ 66.6 µM).
Under `O=C(CSc1ccc(Br)cc1)Nc1cccc(Cl)c1` stands 1.51 µg/mL (≈ 4.23 µM); under `COC(=O)C(C)Oc1ccc2c(=O)c(-c3ccc(Cl)cc3)coc2c1` (stereo not drawn), 4.23 µg/mL (≈ 11.8 µM).
For `CCOC(=O)C(C)Oc1ccc2c(=O)c(-c3ccc(Br)cc3)coc2c1` (stereo not drawn), the IC50 is > 50 µg/mL (inactive).
As to `N#Cc1ccc(-c2nc(-c3ccccc3)c(-c3cccs3)[nH]2)cc1`, the IC50 was 5.89 µg/mL (≈ 18 µM).
Then `O=[N+]([O-])c1cc(CN2CCN(c3ccccc3)CC2)c(O)c2ncccc12`, with 6.09 µg/mL (≈ 16.7 µM).
Then `O=C(Nc1ccc(Cl)cc1)c1cc([N+](=O)[O-])ccc1O`, with 17.7 µg/mL (≈ 60.6 µM).
Turning to `C=CCc1ccccc1OCCCCn1ccnc1`, the IC50 is 3.93 µg/mL (≈ 15.3 µM).
For the compound `N#CCCN(Cc1ccccc1)C(=S)NC(=O)c1ccccc1`, the IC50 is 2.51 µg/mL (≈ 7.76 µM).
Turning to `Cc1cc(N2CCCC2)c(C)cc1/C=C\[N+](=O)[O-]`, the IC50 was > 50 µg/mL (inactive).
Then `O=C(NC1C2CC3CC(C2)CC1C3)c1ccc(-c2ccc(Cl)cc2)o1` (stereo not drawn), with 10.9 µg/mL (≈ 30.8 µM); and `O=C1c2cccc3cccc(c23)C(=O)N1CCN1CCN(CC(O)COCc2ccc(Cl)cc2)CC1` (stereo not drawn), with 3.05 µg/mL (≈ 6 µM); and `c1ccc(CCc2ccccc2-c2nc(-c3ccncc3)no2)cc1`, with 8.77 µg/mL (≈ 26.8 µM).
Then `CCC(C)c1ccc(OCC(=O)Nc2ccc(OC)c([N+](=O)[O-])c2)cc1` (stereo not drawn), with 1.61 µg/mL (≈ 4.49 µM); and `c1ccc2sc(NC3=NCN(Cc4ccc5c(c4)OCO5)CN3)nc2c1`, with 1.52 µg/mL (≈ 4.14 µM); and `CN(C)c1ccc(C(O)(c2ccc(N(C)C)cc2)c2ccc(N(C)C)cc2)cc1`, with 0.6 µg/mL (≈ 1.54 µM).
Under `COC(=O)COc1ccc(-c2ccc(C)cc2)cc1` stands 0.22 µg/mL (≈ 0.858 µM); under `COc1cccc(C(=O)Nc2ccc(Cl)c(C(F)(F)F)c2)c1OC`, 14.5 µg/mL (≈ 40.3 µM); under `COc1cccc(-n2nnnc2S(C)(=O)=O)c1`, 1.16 µg/mL (≈ 4.56 µM).
As for `Cc1cc(NC(=O)CSc2nnc(-c3ccccc3Cl)o2)no1`, the IC50 was 2.43 µg/mL (≈ 6.93 µM).
Then `O=Cc1cc(COc2ccc(F)cc2Cl)cs1`, with 3.16 µg/mL (≈ 11.7 µM).
Then `COc1c2ccoc2nc2c(OC)cccc12`, with 1.76 µg/mL (≈ 7.68 µM).
In the case of `c1ccc2nc3c(nc2c1)Nn1cnnc1S3`, the IC50 was > 50 µg/mL (inactive).
As for `CCOC(=O)c1c(NC(=O)c2cc3ccccc3oc2=O)sc(C)c1-c1ccccc1`, the IC50 is > 50 µg/mL (inactive).
Then `CCOC(=O)c1ccc(NC(=S)NCCN2CCc3ccccc3C2)cc1`, with 31 µg/mL (≈ 80.8 µM); and `CNCCCOc1ccc(Cl)cc1C(C)(C)C`, with 7.95 µg/mL (≈ 31.1 µM); and `Clc1cc(Br)ccc1OCCCCn1ccnc1`, with 1.11 µg/mL (≈ 3.37 µM).
Under `COC(=O)COc1ccc(NC(=O)c2ccccc2Br)cc1` stands 1.17 µg/mL (≈ 3.21 µM); under `CC1CCc2c(sc3ncnc(Nc4ccc(OCc5ccccc5)cc4)c23)C1` (stereo not drawn), > 50 µg/mL (inactive).
Then `O=C(NC(=S)Nc1ccc(F)cc1)c1ccc(Br)cc1`, with 0.95 µg/mL (≈ 2.69 µM); and `COC(=O)c1cc(NC(=O)Nc2cccc(Cl)c2)cc(C(=O)OC)c1`, with 0.18 µg/mL (≈ 0.496 µM); and `O=[N+]([O-])c1cccc(NC(=S)Nc2cc(C(F)(F)F)ccc2F)c1`, with 19 µg/mL (≈ 52.9 µM).
Consider `COC(=O)c1ccc2nc(C)cc(Nc3ccc(OCc4ccccc4)cc3)c2c1`, for which the IC50 is 1.2 µg/mL (≈ 3.01 µM).
Then `COc1ccc2nc(/C(C#N)=C\c3ccc(SC)cc3)[nH]c2c1`, with 7.56 µg/mL (≈ 23.5 µM); and `O=C(/C=C/c1cccs1)N1CCN(Cc2ccc3c(c2)OCO3)CC1`, with under 0.1 µg/mL; and `N#Cc1c(SCC(=O)OCc2ccccc2)nsc1SCC(=O)OCc1ccccc1`, with 8.73 µg/mL (≈ 18.6 µM).
Then `CCn1c2ccccc2c2cc(CN3CCC(N4CCN(c5ccccc5)CC4)CC3)ccc21`, with 1.45 µg/mL (≈ 3.2 µM); and `COc1ccc(C(=O)N=Nc2c(O)[nH]c3ccc(Br)cc23)cc1`, with 19.9 µg/mL (≈ 53.1 µM); and `Cc1cccc2sc(NC(=O)c3ccc([N+](=O)[O-])cc3Cl)nc12`, with 19.4 µg/mL (≈ 55.8 µM).
With `O=C(CSc1ccc(C(F)(F)F)cc1[N+](=O)[O-])OC1CCCCC1`, the IC50 was 1.26 µg/mL (≈ 3.47 µM).
For the compound `O=C(Nc1nccs1)c1cn(-c2ccccc2)nc1-c1ccco1`, the IC50 was > 50 µg/mL (inactive).
Then `NC(=O)COc1ccc(C23CC4CC(CC(C4)C2)C3)cc1`, with 19.7 µg/mL (≈ 69.2 µM); and `CC(C)c1ccc(OCC(=O)NNC(=S)NC(=O)c2ccco2)c(Br)c1`, with 0.25 µg/mL (≈ 0.568 µM); and `O=C(CCc1ccccc1)NC(=S)Nc1ccc(N2CCCCC2)cc1`, with 0.27 µg/mL (≈ 0.735 µM).
Then `O=C(Oc1cccc2cccnc12)c1cccc([N+](=O)[O-])c1`, with 10.8 µg/mL (≈ 36.7 µM); and `CCOc1cc(CNC(C)C23CC4CC(CC(C4)C2)C3)cc(Cl)c1OCC(=O)NC(C)(C)C` (stereo not drawn), with 3.06 µg/mL (≈ 6.41 µM); and `COc1ccc(NC(=O)CC23CC4CC(CC(C4)C2)C3)cc1Cl`, with 3.05 µg/mL (≈ 9.14 µM).
In the case of `COc1ccc2nc(C)c3cc(C)oc3c2c1`, the IC50 was 1.82 µg/mL (≈ 8.01 µM).
As for `O=C(CC12CC3CC(CC(C3)C1)C2)Nc1cccc(C(F)(F)F)c1`, the IC50 was 0.97 µg/mL (≈ 2.88 µM).
Under `C/C(=N/Nc1nc(C)c(C)s1)c1ccc(Br)cc1` stands 0.59 µg/mL (≈ 1.82 µM).
Under `Cc1ccc(C(=O)Oc2ccc(Cl)c3cccnc23)cc1[N+](=O)[O-]` stands 0.94 µg/mL (≈ 2.74 µM); under `O=C(CSc1ccc([N+](=O)[O-])cn1)Nc1ccc2c(c1)OCO2`, 7.47 µg/mL (≈ 22.4 µM).
As to `CC(C)(C)c1ccc(Cn2cnc([N+](=O)[O-])n2)cc1`, the half-maximal inhibitory concentration (IC50) is under 0.1 µg/mL.
Under `O=C(Cc1ccc(F)cc1)Nc1ccc(Cl)c(C(F)(F)F)c1` stands 1.2 µg/mL (≈ 3.62 µM); under `CC(C)(C)NC(=O)c1cc2cc([N+](=O)[O-])ccc2oc1=O`, 1.48 µg/mL (≈ 5.1 µM); under `CC(C)(C)c1ccc(OCCn2c(N)nc3ccccc32)cc1`, 1.61 µg/mL (≈ 5.2 µM).
`c1ccc(CCN(Cc2ccccc2)C2CCN(Cc3c[nH]c4ccccc34)CC2)cc1`: the IC50 is 2.91 µg/mL (≈ 6.87 µM).
Then `Cc1ccc(NC(=O)CSc2ccc(F)cc2)cc1`, with 12.3 µg/mL (≈ 44.9 µM); and `COc1ccc(-c2csc(Nc3ccc(C)cn3)n2)cc1`, with 7.18 µg/mL (≈ 24.1 µM).
Then `CCOC(=O)N1CCN(CCC(=O)c2ccc(Cl)cc2)CC1`, with 2.45 µg/mL (≈ 7.54 µM).
Then `Cc1ccccc1NC(=O)C(Cc1ccccc1)NC(=O)c1ccccc1` (stereo not drawn), with 37.5 µg/mL (≈ 105 µM).
`CC(=O)Oc1cccc2ccc(/C=C/c3c(F)cccc3Cl)nc12`: the IC50 is under 0.1 µg/mL.
Regarding `CC(C)C(=O)Nc1ccc(C(=O)Oc2ccccc2)c(O)c1`, the IC50 is under 0.1 µg/mL.
With `O=C(Oc1cccc2cccnc12)c1ccc(Cl)c(S(=O)(=O)N2CCOCC2)c1`, the IC50 is 1.48 µg/mL (≈ 3.42 µM).
Then `CSc1nsc(SCC(=O)c2ccccc2)n1`, with 4.45 µg/mL (≈ 15.8 µM); and `COC(=O)COc1cc2oc(=O)cc(-c3ccccc3)c2cc1Cl`, with 29 µg/mL (≈ 84.1 µM).
Then `N#Cc1c(SCCN2CCCC2)nc2c(c1C(F)(F)F)CC(c1ccccc1)CC2` (stereo not drawn), with 47.4 µg/mL (≈ 110 µM); and `Cc1cc(Cl)c(OCCCNCc2ccccc2)c(Br)c1`, with 11.3 µg/mL (≈ 30.7 µM); and `CCc1ccc(NC(=S)Nc2ccc(Cl)c(Cl)c2)cc1`, with 1.38 µg/mL (≈ 4.24 µM).
Turning to `Cc1cc(Sc2ncnc(N)c2[N+](=O)[O-])ncn1`, the IC50 was 1.7 µg/mL (≈ 6.43 µM).
Under `CSc1nc2nc3c(c(=O)n2[nH]1)CCCC3` stands 2.96 µg/mL (≈ 12.5 µM).
Then `COc1ccccc1NC(=O)c1cnc(SC)nc1`, with 3.97 µg/mL (≈ 14.4 µM); and `c1ccc(-n2nnnc2Oc2cccc3cccnc23)cc1`, with 5.68 µg/mL (≈ 19.6 µM).
